Calls of active or inactive are those of the source. No cut-off for these calls is given here.

The results in this text go back to ChEMBL document CHEMBL4420061, “Compositions and methods of inhibiting retinal degeneration” (2013).

Data set [1] deals with Rattus norvegicus. The experiment in a line: Protection against light-induced retinal degeneration in Sprague-Dawley rat assessed as suppression of light-induced retinal function loss by measuring Rod-a and b-wave responses at 50 mg/kg, ip dosed 0.5 hrs before 6 hrs light exposure and measured 7 days after light-exposure by electroretinography. Type of data set: functional, organism-based.

Data set [2] relates to Rattus norvegicus. As to the kind of experiment: Protection against light-induced retinal degeneration in Sprague-Dawley rat assessed as suppression of light-induced retinal structure loss at 50 mg/kg, ip dosed 0.5 hrs before 6 hrs light exposure and measured 7 days after light-exposure by electroretinography. Type of data set: functional, organism-based.
For data set [3], the system named is Rattus norvegicus. The experiment in a line: Protection against light-induced retinal degeneration in Sprague-Dawley rat assessed as suppression of light-induced retinal function loss by measuring Rod-a and b-wave responses at 50 mg/kg, ip dosed 0.5 hrs after 6 hrs light exposure and measured 7 days after light-exposure by electroretinography. Type of data set: functional, organism-based.

Data set [4] has as its system Rattus norvegicus. As to the kind of experiment: Protection against light-induced retinal degeneration in Sprague-Dawley rat assessed as suppression of light-induced retinal structure loss at 50 mg/kg, ip dosed 0.5 hrs after 6 hrs light exposure and measured 7 days after light-exposure by electroretinography. The class given is functional, organism-based.
In data set [5] the test system is Rattus norvegicus. The experiment in a line: Protection against light-induced retinal degeneration in Sprague-Dawley rat assessed as suppression of light-induced retinal function loss by measuring preservation of cone function at 50 mg/kg, ip dosed 0.5 to 12 hrs before 6 hrs light exposure and measured 7 days after light-exposure by electroretinography. Type of data set: functional, organism-based.

In data set [6] the test system is Rattus norvegicus. As to the kind of experiment: Protection against light-induced retinal degeneration in Sprague-Dawley rat assessed as suppression of light-induced retinal function loss by measuring preservation of cone function at 50 mg/kg, ip dosed 16 to 24 hrs before 6 hrs light exposure and measured 7 days after light-exposure by electroretinography. Type of data set: functional, organism-based.

Data set [7] relates to Rattus norvegicus. The experiment in a line: Protection against light-induced retinal degeneration in Sprague-Dawley rat assessed as suppression of light-induced retinal function loss by measuring preservation of cone function at 50 mg/kg, ip dosed after 6 hrs light exposure and measured 7 days after light-exposure by electroretinography. Type of data set: functional, organism-based.

Data set [8] has as its target T1, Retinoid isomerohydrolase (Rattus norvegicus) (UniProt O70276).
T1 sequence (whole entry): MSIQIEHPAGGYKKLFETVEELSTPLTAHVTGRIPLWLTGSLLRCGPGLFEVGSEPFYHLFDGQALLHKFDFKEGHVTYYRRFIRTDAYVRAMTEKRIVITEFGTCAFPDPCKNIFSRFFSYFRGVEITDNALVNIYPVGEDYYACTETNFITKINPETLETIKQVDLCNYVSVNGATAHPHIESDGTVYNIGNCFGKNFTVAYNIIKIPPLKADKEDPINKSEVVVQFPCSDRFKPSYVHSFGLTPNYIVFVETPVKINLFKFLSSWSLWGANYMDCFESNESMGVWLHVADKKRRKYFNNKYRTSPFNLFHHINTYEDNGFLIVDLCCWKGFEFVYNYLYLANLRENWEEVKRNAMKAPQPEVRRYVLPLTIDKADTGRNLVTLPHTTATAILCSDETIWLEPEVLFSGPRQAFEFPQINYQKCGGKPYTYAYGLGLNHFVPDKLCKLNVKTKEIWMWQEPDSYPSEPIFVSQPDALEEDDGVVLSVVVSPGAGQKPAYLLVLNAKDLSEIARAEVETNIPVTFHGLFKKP
As to the kind of experiment: Inhibition of RPE65 in rat RPE microsomes assessed as reduction in isomero-hydrolase activity by measuring 11-cis-retinol generation using all-trans-[3H]-retinol by HPLC analysis.

The test system of data set [9] is Mus musculus. As to the kind of experiment: Inhibition of rhodopsin regeneration in completely light-adapted mouse BALB/c mouse assessed as rhodopsin recovery level by measuring effect on rhodopsin content at 5% dosed to eyes via eye drop before dark adaptation for 1 hr by spectrophotometry (reference value: 78.83%). Type of data set: functional. Set-up: scale not given: the % may be the effect or the level left.

In data set [10] the test system is Rattus norvegicus. As to the kind of experiment: Inhibition of rhodopsin regeneration in overnight dark-adaptated Sprague-Dawley rat assessed as effect on rhodopsin recovery by measuring rhodopsin content at 50 mg/kg, ip followed by exposure to room light for 2 hrs and measured 2.5 hrs after photo-bleach by spectrophotometry. Type of data set: functional, organism-based.

Data set [11] relates to Rattus norvegicus. The experiment in a line: Protection against light-induced retinal degeneration in Sprague-Dawley rat assessed as photoreceptor levels in central and superior retina at 50 mg/kg, ip dosed 0.5 hrs before 6 hrs light exposure relative to control. The class given is functional.
Data set [12] relates to Rattus norvegicus. The experiment in a line: Protection against light-induced retinal degeneration in overnight dark-adaptated Sprague-Dawley rat assessed as protection of retinal rod function by measuring effect on A-waves at 50 mg/kg, ip dosed 30 mins prior to exposure to 4 log cd.s/m2 test flash by electroretinography relative to control. The class given is functional.

In data set [13] the test system is Mus musculus. As to the kind of experiment: Inhibition of rhodopsin regeneration in completely light-adapted mouse BALB/c mouse assessed as effect on rhodopsin content at 10% dosed to eyes via eye drop for 3 times at 6, 3 and 0 hrs before dark adaptation for 1 hr by spectrophotometry. The class given is functional, organism-based.
The test system of data set [14] is Rattus norvegicus. The experiment in a line: Protection against light-induced retinal degeneration in Sprague-Dawley rat assessed as suppression of light-induced retinal function loss by measuring Rod-a and b-wave responses at 50 mg/kg, ip dosed up to 12 hrs before 6 hrs light exposure and measured 7 days after light-exposure by electroretinography. Type of data set: functional, organism-based.

Data set [15] deals with Rattus norvegicus. The experiment in a line: Protection against light-induced retinal degeneration in Sprague-Dawley rat assessed as suppression of light-induced retinal structure loss at 50 mg/kg, ip dosed up to 12 hrs before 6 hrs light exposure and measured 7 days after light-exposure by electroretinography. The class given is functional, organism-based.
Data set [16] has as its system Rattus norvegicus. As to the kind of experiment: Protection against light-induced retinal degeneration in Sprague-Dawley rat assessed as suppression of light-induced retinal function loss by measuring Rod-a and b-wave responses at 50 mg/kg, ip dosed 16 to 24 hrs before 6 hrs light exposure and measured 7 days after light-exposure by electroretinography. Type of data set: functional, organism-based.

The subject of data set [17] is Rattus norvegicus. As to the kind of experiment: Protection against light-induced retinal degeneration in Sprague-Dawley rat assessed as suppression of light-induced retinal structure loss at 50 mg/kg, ip dosed 16 to 24 hrs before 6 hrs light exposure and measured 7 days after light-exposure by electroretinography. The class given is functional, organism-based.
The subject of data set [18] is Rattus norvegicus. The experiment in a line: Effect on cone function in Sprague-Dawley rat at 50 mg/kg, ip under steady rod-suppressing background illumination 60 mins post compound dosing by single- and flicker-flash ERG recordings based assay. The class given is functional, organism-based.
In data set [19] the test system is Rattus norvegicus. As to the kind of experiment: Inhibition of rhodopsin regeneration in overnight dark-adaptated Sprague-Dawley rat assessed as effect on rhodopsin recovery by measuring rhodopsin content at 50 mg/kg, ip followed by exposure to room light for 2 hrs and measured 45 mins after photo-bleach by spectrophotometry (reference value: 100%). The class given is functional. Also noted: scale not given: the % may be the effect or the level left.

The subject of data set [20] is Rattus norvegicus. The experiment in a line: Inhibition of rhodopsin regeneration in overnight dark-adaptated Sprague-Dawley rat assessed as effect on rhodopsin recovery by measuring rhodopsin content at 50 mg/kg, ip followed by exposure to room light for 2 hrs and measured 3 hrs after photo-bleach by spectrophotometry (reference value: 100%). Type of data set: functional. Also noted: scale not given: the % may be the effect or the level left.

Data set [21] is filed under the species Mus musculus. The experiment in a line: Inhibition of retinal RDH activity in mouse retinal microsomes assessed as effect on NADPH-dependent reduction of all-trans-retinal. As to conditions: Retina.
Data set [22] concerns the target T1, Retinoid isomerohydrolase (Rattus norvegicus). As to the kind of experiment: Inhibition of RPE65 in rat RPE microsomes assessed as reduction in isomero-hydrolase activity by measuring 11-cis-retinol generation at 1 mM using all-trans-[3H]-retinol by HPLC analysis.
Data set [23] has as its target T2, Lecithin retinol acyltransferase (Rattus norvegicus) (UniProt Q9JI61).
T2 sequence (whole entry): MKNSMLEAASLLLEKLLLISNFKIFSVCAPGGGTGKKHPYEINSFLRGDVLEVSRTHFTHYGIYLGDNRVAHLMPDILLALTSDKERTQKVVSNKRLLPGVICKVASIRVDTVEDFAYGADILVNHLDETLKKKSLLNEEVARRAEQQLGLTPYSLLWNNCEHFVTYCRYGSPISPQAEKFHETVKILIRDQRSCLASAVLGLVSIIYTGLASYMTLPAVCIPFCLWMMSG
As to the kind of experiment: Inhibition of LRAT in rat RPE microsomes assessed as reduction in retinyl-ester at 1 mM using all-trans-[3H]-retinol by HPLC analysis.

For data set [24], the system named is Mus musculus. The experiment in a line: Inhibition of rhodopsin regeneration in completely light-adapted mouse BALB/c mouse assessed as effect on rhodopsin content at 10% dosed to eyes via eye drop for 2 times at 3 and 0 hrs before dark adaptation for 1 hr by spectrophotometry. Type of data set: functional, organism-based.
The test system of data set [25] is Mus musculus. As to the kind of experiment: Inhibition of rhodopsin regeneration in completely light-adapted mouse BALB/c mouse assessed as effect on rhodopsin content at 10% dosed to eyes via eye drop followed by mouse moving to dark for 1 hr by spectrophotometry. Type of data set: functional, organism-based.
Data set [26] is described as follows: Drug level in posterior eye cup of completely light-adapted mouse BALB/c mouse at 10% dosed to eyes via eye drop for 3 times at 6, 3 and 0 hrs before dark adaptation for 1 hr by mass spectrometry. The class given is ADME, organism-based. The conditions noted are these: in vivo, topical_or_ocular.
In data set [27] the test system is Mus musculus. The experiment in a line: Protection against light-induced retinal degeneration in BALB/c mouse assessed as suppression of light-induced retinal rod function loss at 10% topical application dosed 0.5 hrs before 6 hrs light exposure and measured 5 days after light-exposure by electroretinography. Type of data set: functional, organism-based.
Data set [28] concerns Baboon. As to the kind of experiment: Inhibition of rhodopsin regeneration in anesthetized baboon assessed as rhodopsin regeneration by measuring rhodopsin content in eye at 10 mg/ml dosed as two drops for every 15 minutes for 1.75 hrs by spectrophotometry (reference value: 100%). The class given is functional, Papio. Also noted: scale not given: the % may be the effect or the level left.

Data set [29] is described as follows: Drug level in […] in anesthetized baboon assessed per mg wet weight at 10 mg/ml dosed as two drops for every 15 minutes for 1.75 hrs by mass spectrometry. The class given is ADME, organism-based, Papio. As to conditions: in vivo, topical_or_ocular.

For the molecule `CC(C)(C)/[N+]([O-])=C/c1ccccc1S(=O)(=O)[O-].[Na+]`, the result in data set [1], in [2], in data set [3], in data set [4], in data set [5] and in data set [6] was inactive. For the same molecule, the result in data set [7] was inactive. In addition, the inhibition entry in data set [8] was “inactive”. Moreover, the Activity in data set [9] is recorded as 84.64%.

Consider `CC(C)(C)/[N+]([O-])=C/c1ccc(F)cc1`, for which the inhibition result in data set [10] is “Active”. Further, in data set [11], the result was Active.

With `CC(C)(C)/[N+]([O-])=C/c1ccc(C(F)(F)F)cc1`, the inhibition entry in [10] is “Active”. For the same molecule, in data set [12], the Activity is on record as 804%. In data set [11], the result was Active.

For the molecule `CC(C)(C)/[N+]([O-])=C/c1ccccc1`, the inhibition entry in data set [13], in data set [10], in [24] and in [25] was “Active” throughout. The result in [1], in [2], in data set [14], in data set [15], in [5] and in [27] was Active. Also, the result in [3], in data set [4], in data set [16], in data set [17], in data set [6] and in data set [7] was inactive. Also, the result in data set [18] was inactive. The Activity in [19] was 0%; in data set [20], 0%; in [11], 90%; in data set [28], 26 - 36%. The inhibition entry in [21] and in [23] was “inactive” each time. In addition, the inhibition in data set [22] was 100%; in [8], “Dose-dependent effect”. Also, the Drug uptake entry in data set [26] was “Active”; in data set [29], 23.5 to 24.2 ng.

With `Cc1ccc(/C=[N+](\[O-])C(C)(C)C)cc1`, the inhibition entry in data set [10] is “Active”. In data set [11], the outcome was Active.

What is called inhibition is the percentage by which the read-out fell short of the control.
